Source: US20150073330A1, “ALZHEIMER'S DISEASE TREATMENT WITH MULTIPLE THERAPEUTIC AGENTS DELIVERED TO THE OLFACTORY REGION THROUGH A SPECIAL DELIVERY CATHETER AND IONTOPHORESIS” (Wedge Therapeutics, LLC, priority 2012, published 2015)
Entries after “also recorded” stand apart in the source; their conditions may differ.

Columns and labels:
[1] = system: patients with Lyme disease, senile type dementia and early Alzheimer's disease; assay: 2-4-dinitrophenol in Lyme disease, senile type dementia and early Alzheimer's disease; format: in vivo, human; settings: minuscule dose
Text: Exactly how production and aggregation of the beta amyloid peptide gives rise to the pathology of AD even now not known. Accumulation of aggregated amyloid fibrils, which are believed to be the toxic form of the protein responsible for disrupting the cell's calcium ion homeostasis, induces programmed cell death (apoptosis). It known that Aβ selectively builds up in the mitochondria in the cells of Alzheimer's-affected brains, and it inhibits certain enzyme functions and the utilization of glucose by neurons (Chen X, Yan S D. 2006. “Mitochondrial Aβ: a potential cause of metabolic dysfunction in Alzheimer's disease”. IUBMB Life 58 (12): 686-94.). […] We had to discontinue the study due to federal restriction on such use that is not FDA approved.

[2] = cited from earlier work
[3] = cutaneous T-cell lymphoma, 300-400 mg per m^2 per day for eight weeks; cited from earlier work
[4] = system: amyloid beta; settings: mice, cited from earlier work
[5] = in vivo; cited from earlier work
[6] = system: patients with depression associated with neurodegenerative diseases; assay: Intranasal ORE ketamine in patients with depression
[7] = biological target: T1, TNF-alpha (Homo sapiens, UniProt P01375); settings: AD patients; cited from earlier work
T1 construct: endogenous in cells; host or cells: AD patients (in vivo)

[8] = biological target: T1, TNF-alpha; assay: Etanercept administration in AD patients by different routes; format: in vivo; settings: compared to perispinal, epispinal or interspinal routes
Text: CNS Drugs 2009; 23 (9): 713-725. Richard C. Chou, Michael A. Kane, Shiva Gautam and Sanjay Ghirmire. Tumor Necrosis Factor Inhibition Reduces the Incidence of Alzheimer's disease in Rheumatoid Arthritis Patients. Abstracts of the American College of Rheumatology, Nov. 8, 2010, Atlanta Ga., Presentation No. 640). […] It is transported to the CNS through the CSF, not by direct spread by cervical vertebral venous system as perceived (Shantha T R and Evans J A: Arachnoid Villi in the Spinal Cord, and Their Relationship to Epidural Anesthesia. Anesthesiology 37:543-557, 1972).

[9] = system: adults with AD and amnestic mild cognitive impairment; settings: cited from earlier work
[10] = system: students taking the comprehensive examination and test; assay: ORE insulin in students before the comprehensive examination; format: in vivo, human; settings: 2-4 IU each side of the nose to the ORE, 1-2 hours before the examination, compared to controls
Method: In a study of students taking the comprehensive examination and test, we prescribed 2-4 IU insulin instilled on each sides of the nose delivered to the ORE in supine position, 1-2 hours before the examination using our delivery device. […] We are planning an expanded study and to analyze statistically to report its positive significance and its use in public speakers (T. R. Shantha, use of olfactory mucosal insulin to enhance the memory and recall before student examinations, written tests and before presentations in front of audience at meetings. Expanded study-under preparation.).

[11] = system: patients with impaired cognition, depression, PTSD, stroke, concussion, brain injury; assay: ORE delivery of insulin alone or combined in impaired cognition, depression, PTSD, stroke, concussion and brain injury; format: in vivo, human; settings: olfactory mucosal delivery; declining memory in the aged, Parkinson's, depression of many causes
Text: We also provided the home therapy kit with these therapeutic agents and trained them in the method of delivery to ORE, so that they can administer on their own. Some of the patients received hyperbaric oxygen therapy also.

[12] = system: MCF-7 Human Breast Cancer Cells; settings: MCF-7 cells; cited from earlier work
[13] = cited from earlier work; remark: listed apart in the source
[14] = system: receptors in the hippocampus and the frontal cortex; settings: rodent models, intranasal; cited from earlier work

T1 sequence (P01375 77-233 limits assumed): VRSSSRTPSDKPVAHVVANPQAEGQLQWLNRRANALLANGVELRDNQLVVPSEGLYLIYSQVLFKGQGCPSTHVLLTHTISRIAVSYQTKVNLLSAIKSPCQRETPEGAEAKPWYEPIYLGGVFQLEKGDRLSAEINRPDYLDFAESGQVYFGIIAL

## O=[N+]([O-])c1ccc(O)c([N+](=O)[O-])c1 [2-4-dinitrophenol]
[1]
  complications: without a single complication
[1]; unpublished data 2004
  pathological changes, memory and cognition: reduces these pathological changes and improves the memory and cognition

## CNC(=O)Oc1ccc2c(c1)[C@]1(C)CCN(C)[C@@H]1N2C [Physostigmine Salicylate]
[2]; 0.5% aqueous solution
  pH of aqueous solution: 5.8
[2]
  solubility in water: soluble in water

## C=C(c1ccc(C(=O)O)cc1)c1cc2c(cc1C)C(C)(C)CCC2(C)C [bexarotene]
[3]
  adverse effects of high dose usage: hypertriglyceridemia, hypercholesterolemia and decreased high-density lipoprotein levels, as well as hypothyroidism
[4]; after bexarotene treatment
  ability to sense and respond to odors: improvement in the ability to sense and respond to odors
[4]; by 72 hours after the bexarotene treatment
  nest making behavior: began to use paper to make nests

## CNC1(c2ccccc2Cl)CCCCC1=O (stereo not shown) [ketamine]
[2]; equivalent of 50 mg ketamine base per milliliter
  pH of the sterile solution for injection: 3.5 to 5.5
[5]
  crossing of the blood brain barrier: easily crosses the BBB
[6]; early cases, especially in dementia
  depressive condition in early cases: completely ameliorated the depressive condition
[6]; intranasal delivery to the olfactory mucosa, neurodegenerative diseases, cancer, senility, Lyme disease and others
  depression: reduced or relieved the depression
[6]; micro doses, 500 micrograms through the ORE
  hallucinogenic or other ill effect: no hallucinogenic or other ill effect; also recorded: no hallucinogenic effect

## N[C@@H](Cc1ccc(O)c(O)c1)C(=O)O [levodopa]
[5]
  share that crosses BBB: 5-10%

## CNC(=O)Oc1ccc2c(c1)[C@]1(C)CCN(C)[C@@H]1N2C [physostigmine]
[5]
  crossing of the blood brain barrier: can cross the blood-brain barrier

## Etanercept
[7]
  cognitive abilities after perispinal administration: improve the cognitive abilities of AD patients
[8]
  effectiveness of cervical epidural and intranasal ORE delivery: much more effective

## insulin
[9]; 3-week daily intranasal insulin, adults with AD and aMCI
  story recall and functional status: improved delayed story recall and caregiver-rated functional status
[9]; 21 days olfactory mucosal insulin, early stage AD or mild cognitive impairment, vs placebo
  memory, attention and functioning: enhanced memory, attention, and functioning compared with placebo
[10]
  recall from memory during the test: better and more rapid recall from memory
  test scores: scored higher in test scores
[11]
  depression, memory and cognition: reduced the depression, improved the memory, and increased cognition
[12]
  enhancement of the activity of methotrexate: 10,000 times
[13]; human studies, olfactory mucosal intranasal
  time to increased insulin levels in cerebrospinal fluid (CSF): ≤ 60 min
[13]; normal adults and patients with Alzheimer's disease
  effect on blood glucose: without altering blood glucose
[14]
  time to binding to receptors in the hippocampus and the frontal cortex: ≤ 60 min
